Assay results from patent publication US20240287138A1, “CYCLIC PEPTIDES FOR INHIBITING TNF RECEPTOR 1 ACTIVITY” (Merck Sharp & Dohme LLC, priority 2023, published 2024).
Numbered stars: 1 amine (or outer) side, 2 acyl side, 3 side chain; on linkers, the order of the positions; unused ones are H or OH. Bridge positions count the residues as written; N and C are the ends. Square brackets hold non-standard residues; d marks the D form. Peptide text beside a SMILES is read from it. Trp(βS-Me,7-OMe) = COc1cccc2c([C@H](C)[C@H](N)C(=O)O)c[nH]c12; Ala(indazol-1-yl) = N[C@@H](Cn1ncc2ccccc21)C(=O)O; Trp(7-CN) = N#Cc1cccc2c(C[C@H](N)C(=O)O)c[nH]c12; Trp(7-Cl) = N[C@@H](Cc1c[nH]c2c(Cl)cccc12)C(=O)O; Phe(3-CONH2) = NC(=O)c1cccc(C[C@H](N)C(=O)O)c1; Phe(4-CONH2) = NC(=O)c1ccc(C[C@H](N)C(=O)O)cc1; Phe(4-COOH) = N[C@@H](Cc1ccc(C(=O)O)cc1)C(=O)O; 4Pal(3S-Me) = C[C@@H](c1ccncc1)[C@H](N)C(=O)O; Trp(7-aza) = N[C@@H](Cc1c[nH]c2ncccc12)C(=O)O; Pip(5R-OH) = O=C(O)[C@@H]1CC[C@@H](O)CN1; αMeW = C[C@](N)(Cc1c[nH]c2ccccc12)C(=O)O; X1 = O=C([C@@H]1CC[C@H](N[*:1])C1)[*:2]; Pip(4-aza) = O=C(O)[C@@H]1CNCCN1; 4Pal = N[C@@H](Cc1ccncc1)C(=O)O; Gly(cBu) = N[C@H](C(=O)O)C1CCC1; NMeE = CN[C@@H](CCC(=O)O)C(=O)O; dHyp = O=C(O)[C@H]1C[C@H](O)CN1; Cit = NC(=O)NCCC[C@H](N)C(=O)O; Gly(N-CH2CH2OH) = O=C(O)CNCCO; Ahp(2) = CCCCC[C@H](N)C(=O)O; αMeS = C[C@](N)(CO)C(=O)O; Nle = CCCC[C@H](N)C(=O)O; Sar = CNCC(=O)O

Columns and labels:
[1] = molecular target: T1, human TNFR2 ECD protein (Homo sapiens, UniProt P20333); assay: SPR off-target binding (selectivity) to human TNFR2 ECD
T1 construct: HRV 3C protease cleavage site (C); 6His (C, cleaved yes); made in house; host or cells: Sf21 insect cells (baculovirus), secreted
T1 sequence (P20333 23-257): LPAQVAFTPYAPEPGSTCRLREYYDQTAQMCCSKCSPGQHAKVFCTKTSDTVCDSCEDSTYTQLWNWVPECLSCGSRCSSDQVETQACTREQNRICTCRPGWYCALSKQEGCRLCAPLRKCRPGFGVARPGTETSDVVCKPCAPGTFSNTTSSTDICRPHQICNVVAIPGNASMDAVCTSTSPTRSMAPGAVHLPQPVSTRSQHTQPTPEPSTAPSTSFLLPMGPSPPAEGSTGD
Outline: (§1)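 Peptides are tested against captured biotin-tagged human TNFR1 ECD, with parallel TNFR2 ECD binding to check selectivity. Buffer: 10 mM HEPES pH 7.4, 150 mM NaCl, 3 mM EDTA, 0.05% P20, 2% DMSO.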

[2] = molecular target: T2, human TNFR1 extracellular domain (ECD) protein (Homo sapiens, UniProt P19438); assay: SPR binding affinity to captured human TNFR1 ECD
T2 construct: HRV 3C protease cleavage site (C); 6His (C, cleaved yes); made in house; host or cells: Sf21 insect cells (baculovirus), secreted
T2 sequence (P19438 30-211): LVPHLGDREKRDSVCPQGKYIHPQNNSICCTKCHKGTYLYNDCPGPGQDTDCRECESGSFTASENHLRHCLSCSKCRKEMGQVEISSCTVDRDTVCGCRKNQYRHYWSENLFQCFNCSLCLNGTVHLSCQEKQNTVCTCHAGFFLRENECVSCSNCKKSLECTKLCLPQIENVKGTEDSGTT
Outline: as §1

[3] = molecular target: T3, human soluble TNFR1 (sTNFR1) (Homo sapiens, UniProt P19438); assay: Human sTNFR1-peptide displacement assay (LanthaScreen Eu TR-FRET binding assay)
T3 construct: made in house; host or cells: Sf21 (baculovirus)
T3 sequence (P19438 with tags, fused parts or gaps): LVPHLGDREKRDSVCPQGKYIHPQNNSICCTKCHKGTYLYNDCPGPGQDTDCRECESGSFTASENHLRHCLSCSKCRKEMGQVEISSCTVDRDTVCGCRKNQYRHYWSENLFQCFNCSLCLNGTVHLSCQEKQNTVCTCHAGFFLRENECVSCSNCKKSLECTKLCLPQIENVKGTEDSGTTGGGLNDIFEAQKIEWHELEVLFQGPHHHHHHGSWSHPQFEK
Outline: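 Readout is the 665/615 nm TR-FRET ratio (Eu anti-His donor, streptavidin-Alexa647 acceptor), normalized to DMSO and saturating displacer, fit by Morrison-based five-parameter logistic for Kd^app. His-tagged sTNFR1 (1-211) prebound to 100 nM biotinylated peptide SEQ ID NO.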

COc1cccc2c([C@H](C)[C@@H]3NC(=O)CN(C)C(=O)[C@H](Cc4cccc(C(N)=O)c4)NC(=O)[C@H](Cc4ccc(C(=O)O)cc4)NC(=O)[C@](C)(CO)NC(=O)[C@H](Cc4c[nH]c5c(Cl)cccc45)NC(=O)[C@H](Cc4ccncc4)NC(=O)[C@H](CC(N)=O)NC(=O)[C@H]4C[C@H](O)CN4C(=O)[C@H](Cc4c[nH]c5ccccc45)NC(=O)[C@@H]4CC[C@@H](O)CN4C(=O)[C@H](Cc4ccncc4)NC(=O)[C@H](CCCNC(N)=O)NC(=O)[C@@H]4CC[C@@H](C4)NC3=O)c[nH]c12 [SEQ ID NO. 54] (cyclo([4Pal][Trp(7-Cl)][αMeS][Phe(4-COOH)][Phe(3-CONH2)][Sar][Trp(βS-Me,7-OMe)][X1][Cit][4Pal][Pip(5R-OH)]W[dHyp]N))
Kd [1]: > 1000 nM
Kd [2]: 0.07 nM
Kd [3]: 0.24 nM

CCCC[C@@H]1NC(=O)CSC[C@@H](C(N)=O)NC(=O)[C@](C)(Cc2c[nH]c3ccccc23)NC(=O)CN(C)C(=O)[C@H](Cc2ccc(O)cc2)NC(=O)[C@H](Cc2ccc(C(=O)O)cc2)NC(=O)[C@](C)(CO)NC(=O)[C@H](Cc2c[nH]c3c(Cl)cccc23)NC(=O)[C@H](Cc2ccncc2)NC(=O)[C@H](CC(N)=O)NC(=O)[C@H](CCC(=O)O)N(C)C(=O)[C@H](Cc2c[nH]c3ncccc23)NC(=O)[C@H](C2CCC2)NC(=O)[C@H](Cc2ccncc2)NC1=O [SEQ ID NO. 56] ({CH2CO}-[Nle][4Pal][Gly(cBu)][Trp(7-aza)][NMeE]N[4Pal][Trp(7-Cl)][αMeS][Phe(4-COOH)]Y[Sar][αMeW]C-NH2; thioether N-14)
Kd [1]: > 1000 nM
Kd [2]: 27.2 nM
Kd [3]: 2 nM

CCCCC[C@@H]1NC(=O)[C@@H]2CC[C@@H](C2)NC(=O)[C@H]([C@@H](C)c2c[nH]c3c(OC)cccc23)NC(=O)CN(C)C(=O)[C@H](Cc2ccc(C(N)=O)cc2)NC(=O)[C@H](Cc2ccc(C(N)=O)cc2)NC(=O)[C@](C)(CO)NC(=O)[C@H](Cc2c[nH]c3c(C#N)cccc23)NC(=O)[C@H](Cc2ccc(C(=O)O)cc2)NC(=O)[C@H](CC(N)=O)NC(=O)[C@H]2C[C@H](O)CN2C(=O)[C@H](Cc2c[nH]c3ccccc23)NC(=O)[C@H](CCC(N)=O)NC(=O)[C@H]([C@@H](C)c2ccncc2)NC1=O [SEQ ID NO. 70] (cyclo([Ahp(2)][4Pal(3S-Me)]QW[dHyp]N[Phe(4-COOH)][Trp(7-CN)][αMeS][Phe(4-CONH2)][Phe(4-CONH2)][Sar][Trp(βS-Me,7-OMe)][X1]))
Kd [1]: > 1000 nM
Kd [2]: 0.07 nM
Kd [3]: 0.12 nM

CCCC[C@@H]1NC(=O)[C@@H]2CC[C@@H](C2)NC(=O)[C@H]([C@@H](C)c2c[nH]c3c(OC)cccc23)NC(=O)CN(C)C(=O)[C@H](Cc2ccc(O)cc2)NC(=O)[C@H](Cc2ccc(C(=O)O)cc2)NC(=O)[C@](C)(CO)NC(=O)[C@H](Cc2c[nH]c3c(Cl)cccc23)NC(=O)[C@H](Cc2ccncc2)NC(=O)[C@H](CC(N)=O)NC(=O)CN(CCO)C(=O)[C@H](Cc2c[nH]c3ccccc23)NC(=O)[C@@H]2CNCCN2C(=O)[C@H](Cc2ccncc2)NC1=O [SEQ ID NO. 72] (cyclo([4Pal][Trp(7-Cl)][αMeS][Phe(4-COOH)]Y[Sar][Trp(βS-Me,7-OMe)][X1][Nle][4Pal][Pip(4-aza)]W[Gly(N-CH2CH2OH)]N))
Kd [1]: > 1000 nM
Kd [2]: 0.05 nM
Kd [3]: 0.09 nM

CCCC[C@@H]1NC(=O)[C@@H]2CC[C@@H](C2)NC(=O)[C@H]([C@@H](C)c2c[nH]c3c(OC)cccc23)NC(=O)CN(C)C(=O)[C@H](Cc2ccc(O)cc2)NC(=O)[C@H](Cc2ccc(C(N)=O)cc2)NC(=O)[C@](C)(CO)NC(=O)[C@H](Cc2c[nH]c3c(Cl)cccc23)NC(=O)[C@H](Cc2ccncc2)NC(=O)[C@H](CC(N)=O)NC(=O)[C@H](CCC(=O)O)N(C)C(=O)[C@H](Cn2ncc3ccccc32)NC(=O)[C@@H]2CC[C@@H](O)CN2C(=O)[C@H](Cc2ccncc2)NC1=O [SEQ ID NO. 74] (cyclo([4Pal][Trp(7-Cl)][αMeS][Phe(4-CONH2)]Y[Sar][Trp(βS-Me,7-OMe)][X1][Nle][4Pal][Pip(5R-OH)][Ala(indazol-1-yl)][NMeE]N))
Kd [1]: > 1000 nM
Kd [2]: 0.12 nM
Kd [3]: 0.08 nM
